Results: paper PMC9856093, “CIGB-300 Anticancer Peptide Differentially Interacts with CK2 Subunits and Regulates Specific Signaling Mediators in a Highly Sensitive Large Cell Lung Carcinoma Cell Model” (Biomedicines, 2022)
Positions of bridges follow the written chain, without caps; N, C: chain ends. Non-standard residues stand in square brackets, D forms with d. Residues, ends and D or L forms follow the SMILES beside them. βAla = NCCC(=O)O

Legend:
NCI-H460 cells [1] = assay: Cell cycle analysis, PI staining, flow cytometry; format: cell-based, human
Experimental: For cell cycle analysis, NCI-H460 cells were incubated with 30 µM CIGB-300 or with 5 µM CX-4945, respectively, during 6 h, 24 h and 48 h. Following treatment with the peptide, cells were collected by centrifugation, washed with PBS, and fixed at 4 °C for 2 h with ice-cold 70% ethanol. After fixation, cells were treated with DNase-free RNase A (Sigma, St. Louis, MO, USA) and subsequently stained at 37 °C for 20 min with […] PI solution (Sigma, St. Louis, MO, USA). Stained cells were analyzed in the above-mentioned Partec CyFlow Space flow cytometry, and FlowJo Software (v7.6.1) was used for data processing and visualization. All experiments were performed at least four times.

other solid tumor cells = system: other solid tumor cells; design: method as in PMID 35155265; conditions: read-out: IC50 mean value, antiproliferative effect; cited from earlier work
A549 = A549 NSCLC cell line; cited from earlier work
Source text: In this work, we evaluated for the first time the molecular events supporting CK2 inhibition by CIGB-300 in an LCLC in vitro model such as NCI-H460 cells.

c-Myc = assay: Western blot, cancer molecular markers; format: cell-based, human
Experimental: (§1) NCI-H460 cells were plated on six-well cell culture plates at 1 × 10^6 cells per well and incubated overnight at 37 °C and 5% CO2. […] After incubation, the culture medium was withdrawn, and cells were washed with PBS and lysed in RIPA buffer containing protease/phosphatase inhibitor (Thermo Fisher Scientific, Waltham, MA, USA). Western blot detection was carried out as described (4.6). Primary antibodies against phospho-PTEN (S380) and total PTEN (Cell Signaling Technology, Danvers, MA, USA), phospho-RPS6 (S235/236) and total RPS6 (Cell Signaling Technology, Danvers, MA, USA), Ezrin (Abcam, Cambridge, UK), c-Myc (CIGB, SP, Cuba), and Fibrillarin (Abcam, Cambridge, UK) were used. Primary antibodies against CK2 subunits were used as previously described. All experiments were performed at least two times.

NCI-H460 cells [2] = assay: Annexin V-FITC/PI staining, apoptosis by flow cytometry; format: cell-based, human
Experimental: Apoptosis of NCI-H460 cells was measured using FITC Annexin V Apoptosis Detection Kit (BD Biosciences, San Jose, CA, USA). […] NCI-H460 cells were incubated also with 5 µM CX-4945 for 6 h, 24 h and 48 h. Subsequently, cells were washed twice with cold PBS and resuspended in binding buffer (1X) at a final concentration of 1 × 10^6 cells/mL. Finally, 5 µL of FITC Annexin V and PI were added, and cell suspensions were incubated for 15 min at room temperature in the dark. Flow cytometric analysis of stained cells was performed as previously described. All experiments were performed at least two times.

p-RPS6 (S235/236) = assay: Western blot, CK2 downstream signaling; format: cell-based, human; conditions: NCI-H460, 30 µM, 48 h
Experimental: as §1

CK2β = assay: In vivo pull-down plus Western blot; format: binding, human; conditions: biotin-tagged peptide 30 µM, 0.5 h, NCI-H460 cells
Experimental: (§2) For in vivo pull-down assays, N-terminal biotin tagged CIGB-300 (CIGB-300-B) was added to NCI-H460 cells at a final concentration of 30 µM and incubated for 30 min at 37 °C and 5% CO2. Subsequently, cells were collected, washed, and lysed in PBS solution (Sigma, St. Louis, MO, USA) containing 1 mM DTT (Sigma, St. Louis, MO, USA), Triton X-100 (1%), and complete protease inhibitor (Roche, Basel, Switzerland). Cellular lysates were cleared by centrifugation and added to 30 μL of pre-equilibrated streptavidin–sepharose matrix (GE Healthcare, Chicago, IL, USA). In the case of RNA pre-treatment, another cell extract was incubated with RNAase A (10 mg/mL) (Promega, Madison, WI, USA) for 20 min at 37 °C. Following 1 h at 4 °C, the matrix was collected by centrifugation and extensively washed with cold PBS 1 mM and DTT. Proteins bound to streptavidin–sepharose matrix were digested with trypsin (Promega, Madison, WI, USA) during 16 h or eluted for Western blot analysis. In parallel, untreated cells were subjected to the same experimental procedure to identify those proteins non-specifically bound to streptavidin–sepharose matrix. Proteins were resolved in 12% SDS-PAGE and then transferred to a nitrocellulose membrane. […]

RPS6 = assay: In vivo pull-down plus Western blot; format: binding, human; conditions: biotin-tagged peptide 30 µM, 0.5 h, NCI-H460 cells; RNAase free assay
Experimental: as §2

PTEN = target: T1, PTEN (Homo sapiens, UniProt P60484); assay: In vivo pull-down plus Western blot; format: binding; conditions: biotin-tagged peptide 30 µM, 0.5 h, NCI-H460 cells
T1 construct: endogenous in cells; host or cells: NCI-H460
Experimental: as §2, with “membrane. For Western blot analysis, a mouse monoclonal antibody against CK2α (Abcam, Cambridge, UK), a rabbit polyclonal antibody against CK2α′ (Abcam, Cambridge, UK), a mouse monoclonal antibody against CK2β (Sigma, St. Louis, MO, USA), and monoclonal rabbit antibodies against PTEN and RPS6 (Cell Signaling, Danvers, MA, USA), respectively, were used as primary antibodies. Detection was performed with peroxidase-conjugated anti-mouse IgG 1:5000 (Sigma, St. Louis, MO, USA) and anti-rabbit IgG 1:5000 (Sigma, St. Louis, MO, USA). […]” for “membrane.”

CK2α′ = target: T2, CK2α′ (Homo sapiens, UniProt P19784); assay: In vivo pull-down plus Western blot; format: binding; conditions: biotin-tagged peptide 30 µM, 0.5 h, NCI-H460 cells
T2 construct: endogenous in cells; host or cells: NCI-H460
Experimental: as §2, with “membrane. For Western blot analysis, a mouse monoclonal antibody against CK2α (Abcam, Cambridge, UK), a rabbit polyclonal antibody against CK2α′ (Abcam, Cambridge, UK), a mouse monoclonal antibody against CK2β (Sigma, St. Louis, MO, USA), and monoclonal rabbit antibodies against PTEN and RPS6 (Cell Signaling, Danvers, MA, USA), respectively, were used as primary antibodies. Detection was performed with peroxidase-conjugated anti-mouse IgG 1:5000 (Sigma, St. Louis, MO, USA) and anti-rabbit IgG 1:5000 (Sigma, St. Louis, MO, USA). […]” for “membrane.”

CK2α = target: T3, CK2α (Homo sapiens, UniProt P68400); assay: In vivo pull-down plus Western blot; format: binding; conditions: biotin-tagged peptide 30 µM, 0.5 h, NCI-H460 cells
T3 construct: endogenous in cells; host or cells: NCI-H460
Experimental: as §2, with “membrane. For Western blot analysis, a mouse monoclonal antibody against CK2α (Abcam, Cambridge, UK), a rabbit polyclonal antibody against CK2α′ (Abcam, Cambridge, UK), a mouse monoclonal antibody against CK2β (Sigma, St. Louis, MO, USA), and monoclonal rabbit antibodies against PTEN and RPS6 (Cell Signaling, Danvers, MA, USA), respectively, were used as primary antibodies. Detection was performed with peroxidase-conjugated anti-mouse IgG 1:5000 (Sigma, St. Louis, MO, USA) and anti-rabbit IgG 1:5000 (Sigma, St. Louis, MO, USA). […]” for “membrane.”

NCI-H125 = NCI-H125 NSCLC cell line; cited from earlier work
[3] = system: mRNA levels of CK2 subunits; assay: Quantitative real-time PCR of CK2 subunit transcripts; format: cell-based, human; conditions: normalised to GAPDH and HMBS
Experimental: Three replicates per condition were used. […] Louis, MO, USA) for RNA isolation (AllPrep DNA/RNA/miRNA Universal Kit, Qiagen, Valencia, CA, USA), according to the manufacturer protocol. All RNA samples were checked by Nanodrop spectrophotometer to measure concentration (ng/μL) and OD relation (260/280 nm). […] Complementary (c)DNAs were obtained from 500 ng of total RNAs, using the Transcriptor First Strand cDNA Synthesis Kit package (Roche, Mannheim, Germany), following manufacturer instructions. […] We amplified two genes for normalization of GAPDH (glyceraldehyde-3-phosphate dehydrogenase) and HMBS (hydroxymethyl-bilane synthase), and the transcripts encoding for CK2 subunits. All the oligonucleotides were synthetized in the Synthesis Department at CIGB (Table S1). Runs were carried out in the LightCycler® 480II equipment (Roche, Mannheim, Germany) in a 96-well format and SYBR Green Probe II mode with a standard program with 45 cycles. Fold changes for transcripts in each treatment were calculated with respect to time-matched control groups after normalization with GAPDH and HMBS genes (v2.0.13, Qiagen GbmH, Munich, Germany), using Ct values and reaction efficiencies per amplicon calculated in […]11.3). Statistical differences are reported in this program, with a p-value-associated with a significance for p < 0.05.

NCI-H460 cells [4] = assay: Antiproliferative assay, crystal violet staining; format: cell-based; conditions: Homo sapiens, 48 h incubation, CalcuSyn, mean, n = 4, read-out: IC50, antiproliferative effect
Experimental: NCI-H460 was originally obtained from the American Type Culture Collection (ATCC, Manassas, VA, USA). The cell line was cultured in Dulbecco’s modified Eagle’s medium (DMEM) (Gibco, Waltham, MA, USA) supplemented with 10% (v/v) fetal bovine serum (FBS, Invitrogen, Carlsbad, CA, USA) and 50 µg/mL gentamicin (Sigma, St. Louis, MO, USA). Cells were maintained at 37 °C and 5% CO2.
Antiproliferative effect was determined using crystal violet staining. Cells were seeded in flat-bottom 96-well plates (6000 cells/mL), and 24 h later, serial dilutions 1:2 ranging from 200 to 12.5 µM of CIGB-300 and serial dilutions 1:2 ranging from 50 to 3.12 µM of CX-4945 were added, respectively. After 48 h of incubation, the medium was removed from each well and crystal violet (1%) (Sigma, St. Louis, MO, USA) was added and incubated for 5 min at room temperature. After dye removal, wells were washed with water. Absorbance was measured in a CLARIOstar microplate reader (BMG LABTECH, Ortenberg, Germany), and half-inhibitory concentration (IC50) values were estimated using CalcuSyn software (v2.1) (Biosoft, Cambridge, UK).

[5] = NCI-H460, 5 µM, 6 h, 24 h and 48 h

T1 sequence (P60484 whole entry): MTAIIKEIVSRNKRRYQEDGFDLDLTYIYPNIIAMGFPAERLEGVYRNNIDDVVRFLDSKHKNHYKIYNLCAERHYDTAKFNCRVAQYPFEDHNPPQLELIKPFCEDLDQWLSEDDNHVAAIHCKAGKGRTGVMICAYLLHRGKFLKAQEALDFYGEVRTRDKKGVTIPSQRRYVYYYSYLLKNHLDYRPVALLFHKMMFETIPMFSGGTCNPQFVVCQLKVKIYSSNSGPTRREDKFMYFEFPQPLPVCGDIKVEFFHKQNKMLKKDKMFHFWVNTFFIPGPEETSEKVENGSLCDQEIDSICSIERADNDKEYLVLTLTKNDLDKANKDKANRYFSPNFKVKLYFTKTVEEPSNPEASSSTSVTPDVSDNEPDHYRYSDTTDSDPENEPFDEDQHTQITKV
T3 sequence (P68400 whole entry): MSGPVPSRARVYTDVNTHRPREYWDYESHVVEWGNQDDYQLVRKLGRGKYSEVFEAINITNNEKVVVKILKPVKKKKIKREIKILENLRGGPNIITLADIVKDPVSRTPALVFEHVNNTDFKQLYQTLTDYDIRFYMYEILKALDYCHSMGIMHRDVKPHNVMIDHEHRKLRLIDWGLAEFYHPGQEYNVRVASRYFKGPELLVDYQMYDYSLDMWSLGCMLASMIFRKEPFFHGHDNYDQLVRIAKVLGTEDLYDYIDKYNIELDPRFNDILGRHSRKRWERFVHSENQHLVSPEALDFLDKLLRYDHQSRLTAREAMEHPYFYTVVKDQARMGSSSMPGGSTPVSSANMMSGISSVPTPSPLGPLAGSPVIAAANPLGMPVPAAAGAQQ
T2 sequence (P19784 whole entry): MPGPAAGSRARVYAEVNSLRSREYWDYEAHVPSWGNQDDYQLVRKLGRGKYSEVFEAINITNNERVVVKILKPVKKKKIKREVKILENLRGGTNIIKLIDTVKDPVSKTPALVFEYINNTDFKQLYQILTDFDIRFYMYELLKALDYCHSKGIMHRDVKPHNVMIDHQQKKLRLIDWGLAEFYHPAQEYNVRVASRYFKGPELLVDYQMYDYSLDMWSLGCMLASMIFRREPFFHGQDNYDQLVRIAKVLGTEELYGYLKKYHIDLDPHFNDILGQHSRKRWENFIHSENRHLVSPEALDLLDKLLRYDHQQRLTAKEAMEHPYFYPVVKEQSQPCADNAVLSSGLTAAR

| SMILES | perturbation of cells accumulated in the G0/G1 and S phases of the cell cycle (NCI-H460 cells [1]; NCI-H460, 30 µM, S phase at 6 h, G0/G1 at 24 h and 48 h) | IC50 (other solid tumor cells) [µM] | IC50 (A549) [µM] | effect on c-Myc protein expression (c-Myc; NCI-H460, 30 µM, 0.5 h to 48 h) | apoptotic peak (NCI-H460 cells [2]; NCI-H460, 30 µM, at 6 h) [%] | effect on p-RPS6 (S235/236) (p-RPS6 (S235/236)) | regulatory subunit (β) of CK2 in pull-down fraction (CK2β) | interaction with RPS6 in pull-down fraction (RPS6) | interaction with PTEN in pull-down fraction (PTEN) | interaction with CK2α′ in pull-down fraction (CK2α′) | interaction with CK2α in pull-down fraction (CK2α) | IC50 (NCI-H125) [µM] | up-regulation of mRNA levels of CK2 subunits ([3]; NCI-H460, 30 µM, earlier times (0.5 h, 3 h, 6 h)) | cell cycle modulation versus untreated cells (NCI-H460 cells [1]; [5]) | effect on c-Myc protein expression (c-Myc; NCI-H460, 5 µM, 6 h to 48 h) | changes in the double-positive region of the panel (NCI-H460 cells [2]; [5]) | IC50 (NCI-H460 cells [4]) [µM] | up-regulation of mRNA levels of CK2 subunits ([3]; NCI-H460, 5 µM, longer incubation times (3 h to 24 h)) |
| --- | --- | --- | --- | --- | --- | --- | --- | --- | --- | --- | --- | --- | --- | --- | --- | --- | --- | --- |
| CSCC[C@@H]1NC(=O)[C@H](Cc2c[nH]c3ccccc23)NC(=O)[C@@H](NC(=O)CCNC(=O)[C@H](CCC(N)=O)NC(=O)[C@@H]2CCCN2C(=O)[C@@H]2CCCN2C(=O)[C@H](CCCNC(=N)N)NC(=O)[C@H](CCCNC(=N)N)NC(=O)[C@H](CCCNC(=N)N)NC(=O)[C@H](CCC(N)=O)NC(=O)[C@H](CCCNC(=N)N)NC(=O)[C@H](CCCNC(=N)N)NC(=O)[C@H](CCCCN)NC(=O)[C@H](CCCCN)NC(=O)[C@H](CCCNC(=N)N)NC(=O)CN)CSSC[C@@H](C(=O)O)NC(=O)[C@H]([C@@H](C)O)NC(=O)CNC(=O)[C@H](CC(C)C)NC(=O)[C@H](Cc2c[nH]cn2)NC(=O)[C@H](CCCNC(=N)N)NC(=O)[C@@H]2CCCN2C(=O)[C@H](CO)NC1=O [CIGB-300] (H-GRKKRRQRRRPPQ[βAla]CWMSPRHLGTC-OH; disulfide 15-25; N-terminus and C-terminus assumed) | 10–15% | 60 to 300 | 171 | decreased c-Myc protein expression throughout all incubation times | ~50 | potent inhibition | only minor levels | evident interaction | did not interact | mainly interacted | mainly interacted | 60 | no more than 1.5 fold |  |  |  |  |  |
| O=C(O)c1ccc2c(c1)nc(Nc1cccc(Cl)c1)c1ccncc12 [CX-4945, reference compound] |  |  |  |  |  |  |  |  |  |  |  |  |  | modified the amount of the cell population in all phases of the cell cycle | induced c-Myc up-regulation | did not induce any remarkable changes | 5 ± 2.1 | no more than 1.5 fold |
